Where “and” joins values, the source holds several entries; their conditions need not be identical. Identical values can stand only once. Inconclusive results and toxic doses are left out. Rule for the calls: active = survival T/C of 150% or more; inactive = T/C below 125% in these data.
System: CD2F1 mice, L1210 leukemia ip, survival T/C
Experiment: NCI In Vivo Anticancer Drug Screen. Data for tumor model L1210 Leukemia (intraperitoneal) in CD2F1 (CDF1) mice
Settings: higher = longer survival
In short: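 Read-out first: treated-group measurement over vehicle-control measurement, expressed as a ratio. Animals bore a transplanted tumor line and were dosed with compound or vehicle.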

[1] = endpoint: mean survival time, dose: 100.0 mg/kg/injection, schedule: Q04DX003 (ip), vehicle: saline with Tween-80
[2] = endpoint: mean survival time, dose: 200.0 mg/kg/injection, schedule: Q04DX003 (ip), vehicle: saline with Tween-80
[3] = endpoint: mean survival time, dose: 400.0 mg/kg/injection, schedule: Q04DX003 (ip), vehicle: saline with Tween-80
[4] = endpoint: mean survival time, dose: 100.0 mg/kg/injection, schedule: Q04DX002 (ip), vehicle: saline with Tween-80
[5] = endpoint: mean survival time, dose: 200.0 mg/kg/injection, schedule: Q04DX002 (ip), vehicle: saline with Tween-80
[6] = endpoint: mean survival time, dose: 400.0 mg/kg/injection, schedule: Q04DX002 (ip), vehicle: saline with Tween-80
[7] = endpoint: mean survival time, dose: 50.0 mg/kg/injection, schedule: Q01DX009 (ip), vehicle: saline
[8] = endpoint: mean survival time, dose: 100.0 mg/kg/injection, schedule: Q01DX009 (ip), vehicle: saline
[9] = endpoint: mean survival time, dose: 100.0 mg/kg/injection, schedule: Q01DX001 (ip), vehicle: saline with Tween-80
[10] = endpoint: mean survival time, dose: 100.0 mg/kg/injection, schedule: Q01DX009 (ip), vehicle: Klucel (hydroxypropylcellulose) (HPC)
[11] = endpoint: mean survival time, dose: 200.0 mg/kg/injection, schedule: Q01DX001 (ip), vehicle: saline with Tween-80
[12] = endpoint: mean survival time, dose: 200.0 mg/kg/injection, schedule: Q01DX009 (ip), vehicle: Klucel (hydroxypropylcellulose) (HPC)
[13] = endpoint: mean survival time, dose: 400.0 mg/kg/injection, schedule: Q01DX001 (ip), vehicle: saline with Tween-80

Measured: T/C

O=CC(NC(=O)N(CCCl)N=O)C(O)C(O)C(O)CO (centres undefined)
inactive: endpoint: mean survival time, dose: 0.94 mg/kg/injection, schedule: Q01DX009 (ip), vehicle: citric acid 117 % of control | endpoint: mean survival time, dose: 7.0 mg/kg/injection, schedule: Q01DX001 (ip), vehicle: saline 115 % of control | endpoint: mean survival time, dose: 7.5 mg/kg/injection, schedule: Q01DX009 (ip), vehicle: citric acid 97 % of control | endpoint: mean survival time, dose: 15.0 mg/kg/injection, schedule: Q01DX009 (ip), vehicle: saline 120 % of control | endpoint: mean survival time, dose: 15.0 mg/kg/injection, schedule: Q01DX009 (ip), vehicle: water 93 % of control | endpoint: mean survival time, dose: 40.0 mg/kg/injection, schedule: Q04DX002 (ip), vehicle: saline 92 % of control and 101 % of control
active: endpoint: mean survival time, dose: 1.88 mg/kg/injection, schedule: Q01DX009 (ip), vehicle: citric acid 162 % of control | endpoint: mean survival time, dose: 3.75 mg/kg/injection, schedule: Q01DX009 (ip), vehicle: citric acid 182 % of control and 242 % of control | endpoint: mean survival time, dose: 3.75 mg/kg/injection, schedule: Q01DX009 (ip), vehicle: saline 186 % of control | endpoint: mean survival time, dose: 3.8 mg/kg/injection, schedule: Q01DX009 (ip), vehicle: water 406 % of control | endpoint: mean survival time, dose: 5.0 mg/kg/injection, schedule: Q04DX002 (ip), vehicle: saline 173 % of control and 250 % of control | endpoint: mean survival time, dose: 7.5 mg/kg/injection, schedule: Q01DX009 (ip), vehicle: saline 223 % of control | endpoint: mean survival time, dose: 7.5 mg/kg/injection, schedule: Q01DX009 (ip), vehicle: water 154 % of control | endpoint: mean survival time, dose: 8.0 mg/kg/injection, schedule: Q01DX001 (ip), vehicle: water 267 % of control | endpoint: mean survival time, dose: 10.0 mg/kg/injection, schedule: Q04DX002 (ip), vehicle: saline 276 % of control and 289 % of control | endpoint: mean survival time, dose: 11.0 mg/kg/injection, schedule: Q01DX001 (ip), vehicle: saline 151 % of control and 160 % of control | endpoint: mean survival time, dose: 12.5 mg/kg/injection, schedule: Q01DX001 (ip), vehicle: saline 158 % of control | endpoint: mean survival time, dose: 16.0 mg/kg/injection, schedule: Q01DX001 (ip), vehicle: water 369 % of control | endpoint: mean survival time, dose: 20.0 mg/kg/injection, schedule: Q01DX001 (ip), vehicle: saline 688 % of control | endpoint: mean survival time, dose: 20.0 mg/kg/injection, schedule: Q04DX002 (ip), vehicle: saline 331 % of control and 335 % of control | endpoint: mean survival time, dose: 25.0 mg/kg/injection, schedule: Q01DX001 (ip), vehicle: saline 535 % of control | endpoint: mean survival time, dose: 28.0 mg/kg/injection, schedule: Q01DX001 (ip), vehicle: saline 857 % of control | endpoint: mean survival time, dose: 32.0 mg/kg/injection, schedule: Q01DX001 (ip), vehicle: water 372 % of control | endpoint: mean survival time, dose: 36.0 mg/kg/injection, schedule: Q01DX001 (ip), vehicle: saline 603 % of control [middle of 4 runs] | endpoint: mean survival time, dose: 50.0 mg/kg/injection, schedule: Q01DX001 (ip), vehicle: saline 202 % of control | endpoint: mean survival time, dose: 54.0 mg/kg/injection, schedule: Q01DX001 (ip), vehicle: saline 300 % of control and 548 % of control | endpoint: median survival time, dose: 15.0 mg/kg/injection, schedule: Q01DX001 (ip), vehicle: saline 152 % of control | endpoint: median survival time, dose: 25.0 mg/kg/injection, schedule: Q01DX001 (ip), vehicle: saline 181 % of control | endpoint: median survival time, dose: 42.0 mg/kg/injection, schedule: Q01DX001 (ip), vehicle: saline 406 % of control
336 % of control [middle of 4 runs]: endpoint: mean survival time, dose: 16.0 mg/kg/injection, schedule: Q01DX001 (ip), vehicle: saline

N#CCC(=O)OCCCCOC(=O)CC#N
inactive: endpoint: mean survival time, dose: 100.0 mg/kg/injection, schedule: Q01DX009 (ip), vehicle: saline with Tween-80 96 % of control | [1] 103 % of control | endpoint: mean survival time, dose: 200.0 mg/kg/injection, schedule: Q01DX009 (ip), vehicle: saline with Tween-80 97 % of control | [2] 97 % of control | endpoint: mean survival time, dose: 400.0 mg/kg/injection, schedule: Q01DX009 (ip), vehicle: saline with Tween-80 96 % of control | [3] 100 % of control

Nc1ncnc2c1ncn2[C@@H](/C=N\O)O[C@@H](/C=N\O)CO
inactive: endpoint: median survival time, dose: 12.5 mg/kg/injection, schedule: Q01DX005 (ip), vehicle: water 100 % of control | endpoint: median survival time, dose: 25.0 mg/kg/injection, schedule: Q01DX005 (ip), vehicle: water 96 % of control | endpoint: median survival time, dose: 50.0 mg/kg/injection, schedule: Q01DX005 (ip), vehicle: water 103 % of control | endpoint: median survival time, dose: 100.0 mg/kg/injection, schedule: Q01DX005 (ip), vehicle: water 97 % of control | endpoint: median survival time, dose: 200.0 mg/kg/injection, schedule: Q01DX005 (ip), vehicle: water 90 % of control

O=C1c2ccccc2CC1c1ccccc1 (centres undefined)
inactive: endpoint: mean survival time, dose: 12.5 mg/kg/injection, schedule: Q01DX009 (ip), vehicle: other 102 % of control | endpoint: mean survival time, dose: 25.0 mg/kg/injection, schedule: Q01DX009 (ip), vehicle: other 102 % of control | endpoint: mean survival time, dose: 50.0 mg/kg/injection, schedule: Q01DX009 (ip), vehicle: other 97 % of control | endpoint: mean survival time, dose: 100.0 mg/kg/injection, schedule: Q01DX009 (ip), vehicle: other 96 % of control | endpoint: mean survival time, dose: 200.0 mg/kg/injection, schedule: Q01DX009 (ip), vehicle: other 100 % of control

Cc1c2ccccc2c(CN(C)CC(=O)O)c2ccccc12
inactive: [1] 102 % of control | [2] 102 % of control

CC1C(=O)OC2C1CCC1(C)C(O)OC(=O)C3(O)OC231 (centres undefined)
inactive: [4] 104 % of control | [5] 96 % of control | [6] 96 % of control

CC(C)CCC(=O)/C=C\c1ccccc1
inactive: endpoint: mean survival time, dose: 50.0 mg/kg/injection, schedule: Q04DX002 (ip), vehicle: saline with Tween-80 104 % of control | [4] 96 % of control | [5] 86 % of control | [6] 86 % of control

C=C(C)C1CCC2=CCCC(C)C2(C)C1 (centres undefined)
inactive: [7] 98 % of control | [8] 104 % of control | endpoint: mean survival time, dose: 200.0 mg/kg/injection, schedule: Q01DX009 (ip), vehicle: saline 90 % of control

NC(=O)c1ccc[n+](Cc2c(Cl)cccc2Cl)c1
inactive: [1] 105 % of control | endpoint: median survival time, dose: 0.75 mg/kg/injection, schedule: Q01DX009 (ip), vehicle: saline 102 % of control | endpoint: median survival time, dose: 1.5 mg/kg/injection, schedule: Q01DX009 (ip), vehicle: saline 101 % of control | endpoint: median survival time, dose: 3.0 mg/kg/injection, schedule: Q01DX009 (ip), vehicle: saline 109 % of control | endpoint: median survival time, dose: 6.0 mg/kg/injection, schedule: Q01DX009 (ip), vehicle: saline 102 % of control | endpoint: median survival time, dose: 12.0 mg/kg/injection, schedule: Q01DX009 (ip), vehicle: saline 102 % of control

CSC(SC)=C1C(=O)NC(=O)NC1=O
inactive: endpoint: median survival time, dose: 3.12 mg/kg/injection, schedule: Q01DX009 (ip), vehicle: saline 101 % of control | endpoint: median survival time, dose: 6.25 mg/kg/injection, schedule: Q01DX009 (ip), vehicle: saline 112 % of control | endpoint: median survival time, dose: 12.5 mg/kg/injection, schedule: Q01DX009 (ip), vehicle: saline 109 % of control | endpoint: median survival time, dose: 25.0 mg/kg/injection, schedule: Q01DX009 (ip), vehicle: saline 109 % of control | endpoint: median survival time, dose: 50.0 mg/kg/injection, schedule: Q01DX009 (ip), vehicle: saline 116 % of control

O=[N+]([O-])c1ccc(N2N=NC3C4CCC(C4)C32)cc1 (centres undefined)
inactive: [1] 93 % of control | [2] 91 % of control | [3] 96 % of control

CCOC(=O)N1C=Cc2ccccc2C1/C(N)=N/O (centres undefined)
inactive: [9] 98 % of control | [10] 96 % of control | [11] 95 % of control | [12] 91 % of control | [13] 94 % of control | endpoint: mean survival time, dose: 400.0 mg/kg/injection, schedule: Q01DX009 (ip), vehicle: Klucel (hydroxypropylcellulose) (HPC) 91 % of control

CCCc1c(C)[nH]c2ccc(C)cc12
inactive: [7] 102 % of control | [8] 104 % of control | [1] 101 % of control | [2] 86 % of control

Cc1ccc(C(=O)/C=C/c2ccccc2)cc1
inactive: endpoint: mean survival time, dose: 25.0 mg/kg/injection, schedule: Q01DX009 (ip), vehicle: Klucel (hydroxypropylcellulose) (HPC) 86 % of control | endpoint: mean survival time, dose: 50.0 mg/kg/injection, schedule: Q01DX009 (ip), vehicle: Klucel (hydroxypropylcellulose) (HPC) 88 % of control | [9] 108 % of control | [10] 86 % of control | [11] 100 % of control | [12] 86 % of control | [13] 100 % of control

— PubChem BioAssay AID256 (DTP/NCI, 2004)
